Data published in the NIST ThermoML archive (doi:10.1016/j.jct.2017.08.004).

Experiment: molar heat capacity at constant pressure
Conditions: 101.33 kPa

OC[C@@H](O)C(O)[C@H](O)CO [D-arabitol]
molar heat capacity at constant pressure [J/K/mol]
Conditions	Small sample (50 mg) DSC	relaxation calorimetry
250.15 K, Crystal	167.62	–
251.15 K, Crystal	168.09	–
252.02 K, Crystal	–	171.93
252.15 K, Crystal	168.72	–
253.15 K, Crystal	169.42	–
254.15 K, Crystal	170.21	–
255.15 K, Crystal	170.83	–
256.15 K, Crystal	171.49	–
257.15 K, Crystal	172.29	–
258.15 K, Crystal	172.95	–
259.15 K, Crystal	173.8	–
260 K, Crystal	–	176.9
260.15 K, Crystal	174.49	–
261.15 K, Crystal	175.07	–
262.08 K, Crystal	–	178.58
262.15 K, Crystal	175.71	–
263.15 K, Crystal	176.2	–
264.15 K, Crystal	176.94	–
265.15 K, Crystal	177.53	–
266.15 K, Crystal	177.9	–
267.15 K, Crystal	178.76	–
268.15 K, Crystal	179.47	–
269.15 K, Crystal	180.14	–
270 K, Crystal	–	183.17
270.15 K, Crystal	180.88	–
271.15 K, Crystal	181.55	–
272.1 K, Crystal	–	184.8
272.15 K, Crystal	182.34	–
273.15 K, Crystal	183.05	185.17
274.15 K, Crystal	183.84	–
275.15 K, Crystal	184.43	–
276.15 K, Crystal	185.01	–
277.15 K, Crystal	185.89	–
278.15 K, Crystal	186.82	–
279.15 K, Crystal	187.46	–
280 K, Crystal	–	189.54
280.15 K, Crystal	187.87	–
281.15 K, Crystal	188.79	–
282.15 K, Crystal	189.61	–
282.16 K, Crystal	–	190.77
283.15 K, Crystal	190.26	–
284.15 K, Crystal	190.76	–
285.15 K, Crystal	191.48	–
286.15 K, Crystal	192.29	–
287.15 K, Crystal	192.88	–
288.15 K, Crystal	193.55	–
289.15 K, Crystal	194.1	–
290 K, Crystal	–	196
290.15 K, Crystal	195.02	–
291.15 K, Crystal	195.84	–
292.15 K, Crystal	196.49	–
292.31 K, Crystal	–	197.61
293.15 K, Crystal	197.3	–
294.15 K, Crystal	198.27	–
295.15 K, Crystal	198.8	–
296.15 K, Crystal	199.7	–
297.15 K, Crystal	200.51	–
298.15 K, Crystal	201.09	201.35
299.15 K, Crystal	201.8	–
300 K, Crystal	–	202.57
300.15 K, Crystal	202.43	–
301.15 K, Crystal	203.27	–
302.15 K, Crystal	203.89	–
302.32 K, Crystal	–	203.84
303.15 K, Crystal	204.69	–
304.15 K, Crystal	205.64	–
305 K, Crystal	206.38	–
305.15 K, Crystal	206.52	–
306.15 K, Crystal	207.29	–
307.15 K, Crystal	207.99	–
308.15 K, Crystal	209.04	–
309.15 K, Crystal	210.24	–
310 K, Crystal	210.77	–
310.15 K, Crystal	211.11	–
311.15 K, Crystal	212.09	–
312.15 K, Crystal	213.04	–
313.15 K, Crystal	213.93	–
314.15 K, Crystal	214.62	–
315 K, Crystal	215.3	–
315.15 K, Crystal	215.49	–
316.15 K, Crystal	216.44	–
317.15 K, Crystal	217.32	–
318.15 K, Crystal	218.08	–
319.15 K, Crystal	218.98	–
320 K, Crystal	219.92	–
320.15 K, Crystal	219.94	–
321.15 K, Crystal	220.72	–
322.15 K, Crystal	221.63	–
323.15 K, Crystal	222.6	–
324.15 K, Crystal	223.41	–
325 K, Crystal	224.62	–
325.15 K, Crystal	224.24	–
326.15 K, Crystal	225.48	–
327.15 K, Crystal	226.61	–
328.15 K, Crystal	227.57	–
329.15 K, Crystal	228.54	–
330 K, Crystal	229.51	–
330.15 K, Crystal	229.69	–
331.15 K, Crystal	231.05	–
332.15 K, Crystal	232.16	–
333.15 K, Crystal	233.08	–
334.15 K, Crystal	234.14	–
335 K, Crystal	234.75	–
335.15 K, Crystal	235.21	–
336.15 K, Crystal	236.36	–
337.15 K, Crystal	237.46	–
338.15 K, Crystal	238.56	–
339.15 K, Crystal	239.77	–
340 K, Crystal	240.61	–
340.15 K, Crystal	240.89	–
341.15 K, Crystal	242.17	–
342.15 K, Crystal	243.41	–
343.15 K, Crystal	244.65	–
344.15 K, Crystal	245.91	–
345 K, Crystal	247.41	–
345.15 K, Crystal	247.41	–
346.15 K, Crystal	248.94	–
350 K, Crystal	255.58	–
394.05 K, Liquid	448.1	–
394.15 K, Liquid	448.11	–
395 K, Liquid	447.62	–
395.15 K, Liquid	447.51	–
396.15 K, Liquid	447.26	–
397.15 K, Liquid	446.68	–
398.15 K, Liquid	446.29	–
399.15 K, Liquid	446.43	–
400 K, Liquid	446.52	–
400.15 K, Liquid	446.4	–
401.15 K, Liquid	446.31	–
402.15 K, Liquid	446.59	–
403.15 K, Liquid	447.05	–
404.15 K, Liquid	446.97	–
405 K, Liquid	447.4	–
405.15 K, Liquid	447.29	–
406.15 K, Liquid	447.83	–
407.15 K, Liquid	447.84	–
408.15 K, Liquid	448.15	–
409.15 K, Liquid	448.6	–
410 K, Liquid	449.23	–
410.15 K, Liquid	448.95	–
411.15 K, Liquid	449.41	–
412.15 K, Liquid	449.97	–
413.15 K, Liquid	450.76	–
414.15 K, Liquid	451.47	–
415 K, Liquid	452.02	–
415.15 K, Liquid	452.79	–
416.15 K, Liquid	453.35	–
417.15 K, Liquid	453.87	–
418.15 K, Liquid	454.54	–
419.15 K, Liquid	456.24	–
420 K, Liquid	455.76	–
420.15 K, Liquid	456.5	–
421.15 K, Liquid	457.07	–
422.15 K, Liquid	457.63	–
423.15 K, Liquid	457.94	–
424.15 K, Liquid	458.28	–
